Broadly, the AC50 is the midpoint of the concentration-response curve, whichever way the signal moves.

The record followed here is US11040036B2, “Pyruvate kinase activators for use in treating blood disorders” (Agios Pharmaceuticals, Inc., priority 2017, dated 2021).

The target of one assay is PKR K410E (Homo sapiens, UniProt P30613, K410E). As to the kind of experiment: PKR mutant assay (AC50), PKR K410E. It counts as biochemical. The settings on record: PKR K410E mutant enzyme. The gist of the method:
(§1)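 Human wild-type PKR or R510Q/K410E mutant (40-400 ng/well) in 50 mM Tris pH 7.5, 100 mM KCl, 5 mM MgCl2, 1 mM DTT, 0.03% BSA with PEP 0.1-0.5 mM, 180 μM NADH and LDH coupling. Compound (11-point 3-fold series from 100 μM final) preincubated 60 min at room temperature. Reaction was started with ADP (0.2-1.65 mM) and NADH depletion was followed at 340 nm to give AC50.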

The target in assay [1] is T1, wild type PKR (Homo sapiens, UniProt P30613). Nature of the assay: Cell based ATP assay in purified red blood cells. Further details: endogenous in cells; host or cells: purified red blood cells from blood of healthy volunteers. The settings on record: RBCs, overnight at 37° C., ATP levels by Cell-Titer-Glo. The method, boiled down:
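Leukocyte-depleted red cells from healthy volunteers were held in AGAM (PBS, glucose, adenine, mannitol) at 1×10^7 cells/mL. They were treated with 1:4 serial compound dilutions at 0.1% DMSO final and incubated overnight at 37 °C in humidity. ATP was then quantified by CellTiter-Glo luminescence.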

Assay [2] has as its target T1, wild type PKR. As to the kind of experiment: PKR mutant assay (AC50), wild type PKR. The assay is classed as biochemical. The settings on record: wild type PKR enzyme; read-out: PKR WT AC50. The method, boiled down:
as §1

A further assay deals with PKR R510Q (Homo sapiens, UniProt P30613, R510Q). As to the kind of experiment: PKR mutant assay (AC50), PKR R510Q. The settings on record: PKR R510Q mutant enzyme; read-out: PK R510Q AC50. The assay is classed as biochemical. The method, boiled down:
as §1

Sequence of PKR K410E (P30613 whole entry K410E): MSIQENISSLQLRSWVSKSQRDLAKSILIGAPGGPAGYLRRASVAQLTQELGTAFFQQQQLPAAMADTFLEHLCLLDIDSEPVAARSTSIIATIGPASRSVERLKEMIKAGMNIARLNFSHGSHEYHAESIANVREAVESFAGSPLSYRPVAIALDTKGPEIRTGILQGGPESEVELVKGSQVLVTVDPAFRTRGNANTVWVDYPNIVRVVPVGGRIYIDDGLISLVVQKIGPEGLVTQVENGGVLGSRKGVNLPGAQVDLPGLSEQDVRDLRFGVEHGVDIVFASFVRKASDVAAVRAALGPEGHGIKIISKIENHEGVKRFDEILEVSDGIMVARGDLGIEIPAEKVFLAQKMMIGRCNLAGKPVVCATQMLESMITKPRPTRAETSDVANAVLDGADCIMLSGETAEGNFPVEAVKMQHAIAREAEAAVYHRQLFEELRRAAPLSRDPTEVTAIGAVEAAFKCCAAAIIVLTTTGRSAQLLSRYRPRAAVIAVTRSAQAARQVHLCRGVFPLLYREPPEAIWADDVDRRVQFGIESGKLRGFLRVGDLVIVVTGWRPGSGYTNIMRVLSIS
Sequence of PKR R510Q (P30613 whole entry R510Q): as the sequence (P30613 whole entry K410E) above, with E410K, R510Q counted along it
T1 sequence (P30613 whole entry): as the sequence (P30613 whole entry K410E) above, with E410K counted along it

`Cn1c2nc(Cc3cc[nH]n3)sc2c2cnn(Cc3cnc(C(N)=O)o3)c(=O)c21`: the AC50 is 0.301 to 0.8 µM at PKR K410E, above 1 µM at wild type PKR [1], 0.301 to 0.8 µM on wild type PKR [2] and 0.301 to 0.8 µM on PKR R510Q.
Regarding `Cn1c2nc(Cc3ccccn3)sc2c2cnn(Cc3cccnc3)c(=O)c21`, the AC50 was 0.301 to 0.8 µM on PKR K410E, at most 1 µM at wild type PKR [1], 0.301 to 0.8 µM at wild type PKR [2] and below 0.3 µM on PKR R510Q.
As for `Cn1c2nc(Cc3cc[nH]n3)sc2c2cnn(Cc3cccnc3)c(=O)c21`, the AC50 on PKR K410E was below 0.3 µM; at wild type PKR [1] it was at most 1 µM; at wild type PKR [2], below 0.3 µM; at PKR R510Q it was below 0.3 µM.
In the case of `Cn1c2nc([C@H](O)c3cc[nH]n3)sc2c2cnn(Cc3cc[nH]n3)c(=O)c21`, the AC50 on PKR K410E was below 0.3 µM; at wild type PKR [1], at most 1 µM; at wild type PKR [2], below 0.3 µM; on PKR R510Q, below 0.3 µM.
Regarding `Cn1ccc(Cn2ncc3c4sc(C(=O)c5cc[nH]n5)nc4n(C)c3c2=O)n1`, the AC50 on PKR K410E is above 0.8 µM; at wild type PKR [1], at most 1 µM; on wild type PKR [2], above 0.8 µM; on PKR R510Q, above 0.8 µM.
Regarding `Cn1c2nc(Cc3ncsc3F)sc2c2cnn(Cc3cc[nH]n3)c(=O)c21`, the half-maximal activity concentration (AC50) on PKR K410E was below 0.3 µM; on wild type PKR [1], at most 1 µM; on wild type PKR [2], below 0.3 µM; on PKR R510Q, below 0.3 µM.
Take `Cn1c2nc([C@@H](O)c3cc[nH]n3)sc2c2cnn(Cc3cc[nH]n3)c(=O)c21`: the AC50 on PKR K410E is below 0.3 µM; at wild type PKR [1], at most 1 µM; at wild type PKR [2] it was below 0.3 µM; on PKR R510Q it was below 0.3 µM.
In the case of `Cn1c2nc(Cc3cc[nH]n3)sc2c2cnn(Cc3nc(N)ccc3F)c(=O)c21`, the AC50 is below 0.3 µM on PKR K410E, at most 1 µM at wild type PKR [1], below 0.3 µM at wild type PKR [2] and below 0.3 µM on PKR R510Q.
`Cn1c2nc(Cc3csc(CO)n3)sc2c2cnn(Cc3nccs3)c(=O)c21`: the AC50 on PKR K410E is below 0.3 µM; on wild type PKR [1], at most 1 µM; at wild type PKR [2], below 0.3 µM; on PKR R510Q, below 0.3 µM.
Turning to `Cn1ccc(Cn2ncc3c4sc(Cc5cc[nH]n5)nc4n(C)c3c2=O)n1`, the AC50 at PKR K410E was below 0.3 µM; on wild type PKR [1] it was at most 1 µM; on wild type PKR [2], below 0.3 µM; on PKR R510Q, below 0.3 µM.
For `Cn1cc(Cl)c(Cn2ncc3c4sc(Cc5cc[nH]n5)nc4n(C)c3c2=O)n1`, the AC50 at PKR K410E was below 0.3 µM; on wild type PKR [1], at most 1 µM; at wild type PKR [2], below 0.3 µM; on PKR R510Q, below 0.3 µM.
`Cn1c2nc(Cc3cc[nH]n3)sc2c2cnn(Cc3ncsc3C(N)=O)c(=O)c21`: the AC50 on PKR K410E was below 0.3 µM; at wild type PKR [1], at most 1 µM; at wild type PKR [2], below 0.3 µM; at PKR R510Q it was below 0.3 µM.
With `Cn1c2nc(Cc3n[nH]cc3F)sc2c2cnn(Cc3n[nH]cc3C(N)=O)c(=O)c21`, the AC50 at PKR K410E is below 0.3 µM; at wild type PKR [1] it was at most 1 µM; at wild type PKR [2], below 0.3 µM; at PKR R510Q, below 0.3 µM.
In the case of `Cn1c2nc(Cc3cc[nH]n3)sc2c2cnn(Cc3ccn(N)n3)c(=O)c21`, the concentration at half-maximal activity (AC50) on PKR K410E was below 0.3 µM; on wild type PKR [1] it was at most 1 µM; on wild type PKR [2], below 0.3 µM; at PKR R510Q it was below 0.3 µM.
On to `Cn1c2nc(Cc3cc[nH]n3)sc2c2cnn(Cc3cscn3)c(=O)c21`, for which the concentration at half-maximal activity (AC50) on PKR K410E was below 0.3 µM; at wild type PKR [1] it was at most 1 µM; on wild type PKR [2], below 0.3 µM; at PKR R510Q it was below 0.3 µM.
With `Cn1c2nc(Cn3ccnc3)sc2c2cnn(Cc3ccnc(N)n3)c(=O)c21`, the concentration at half-maximal activity (AC50) at PKR K410E, on wild type PKR [2] and on PKR R510Q was above 0.8 µM in each case. In addition, the “Cell based ATP assay AC50” value on wild type PKR [1] is “No Fit”.
Consider `Cn1c2nc(Cc3n[nH]cc3F)sc2c2cnn(Cc3n[nH]cc3N)c(=O)c21`, for which the AC50 on PKR K410E was below 0.3 µM; on wild type PKR [1], at most 1 µM; on wild type PKR [2], below 0.3 µM; at PKR R510Q, below 0.3 µM.
As to `Cn1c2nc(Cc3cc[nH]n3)sc2c2cnn(Cc3ccc(C(N)=O)cn3)c(=O)c21`, the concentration at half-maximal activity (AC50) was below 0.3 µM on PKR K410E, at most 1 µM at wild type PKR [1], 0.301 to 0.8 µM on wild type PKR [2] and above 0.8 µM at PKR R510Q.
As for `Cn1ccc(Cn2ncc3c4sc(Cc5n[nH]cc5F)nc4n(C)c3c2=O)n1`, the AC50 on PKR K410E was below 0.3 µM; on wild type PKR [1], at most 1 µM; on wild type PKR [2], below 0.3 µM; on PKR R510Q, below 0.3 µM.
Consider `Cn1c2nc(Cc3ccccn3)sc2c2cnn(Cc3csc(N)n3)c(=O)c21`, for which the AC50 is below 0.3 µM at PKR K410E, at most 1 µM at wild type PKR [1], below 0.3 µM at wild type PKR [2] and below 0.3 µM on PKR R510Q.
With `Cn1c2nc(Cn3ccc(N)n3)sc2c2cnn(Cc3cc[nH]n3)c(=O)c21`, the AC50 is below 0.3 µM on PKR K410E, at most 1 µM at wild type PKR [1], below 0.3 µM on wild type PKR [2] and below 0.3 µM on PKR R510Q.
As for `Cn1c2nc(Cc3cc[nH]n3)sc2c2cnn(Cc3ncsc3N)c(=O)c21`, the concentration at half-maximal activity (AC50) at PKR K410E was below 0.3 µM; at wild type PKR [1] it was at most 1 µM; at wild type PKR [2], below 0.3 µM; at PKR R510Q it was below 0.3 µM.
Take `COc1scnc1Cn1ncc2c3sc(Cc4cc[nH]n4)nc3n(C)c2c1=O`: the AC50 on PKR K410E is below 0.3 µM; on wild type PKR [1], at most 1 µM; on wild type PKR [2], below 0.3 µM; at PKR R510Q it was below 0.3 µM.
